Assays:
[1] = tested on: S. aureus ATCC 29213; test: Antibiotic activity of the compounds alone (MIC technique); assay type: cell-based, Staphylococcus aureus; conditions: compound alone, 18-24 h at 37° C., MH II medium
Protocol: All the compounds according to the invention are solubilized in dimethylsufoxide (DMSO). For each compound, the highest concentration usable during the experiments is determined by taking into account the toxicity of the solvent (final concentration of DMSO in contact with the bacteria of less than 3%) and also the capacity of the compound to solubilize in Mueller Hinton II (MH II) media. This is because some compounds precipitate during dilutions of solutions based on DMSO in MH II media. The strain for screening the compounds is a strain of Staphylococcus aureus from the American Type Culture Collection or ATCC, called S. aureus ATCC 29213. The antibiotic activity of a molecule is evaluated using the MIC technique. The MIC of a molecule is determined in a 96-well microplate, in MH II liquid medium according to the protocol of the CASFM and of the CLSI. A dilution range of the molecule is prepared beforehand in MH II medium. In each well, 100 μl of a bacterial suspension of SI aureus ATCC 29213 (10^6 CFU/ml), 50 μl of the dilution range of the compound tested and 50 μl of MH II are mixed. After 18-24 h of incubation at 37° C., the molecules having shown an inhibition of bacterial growth are recorded as having an antibiotic activity. The lowest concentration of compound for which no bacterial growth is observed is the MIC (lowest concentration inhibiting the growth of the bacteria).

[2] = tested on: S. aureus 1199b overexpressing NorA; test: Supplemental EPI tests: potentiation of antibiotic MICs; assay type: cell-based, Staphylococcus aureus; conditions: for potentiating activity in the presence of tetracycline and of erythromycin: 1199b strain
Protocol: (§1) The molecules of which the EPI effect was evaluated are: I.1 (24 μmol/l), I.6 (16 μmol/l) and I.14 (31 μmol/l).
(§2) The antibiotics with which these molecules were combined are: ciprofloxacin and norfloxacin; tetracycline; oxacillin; erythromycin and vancomycin.
(§3) The bacterial strains tested are S. aureusATCC 29213; S. aureus 1199b overexpressing NorA and also S. aureus 1199, the strain from which it is derived; S. aureus K1712 not expressing NorA and also S. aureus 8325.4 (the strain from which it is derived).
(§4) The methodology used is based on the MIC technique described previously.

[3] = tested on: S. aureus ATCC 29213, 1199b, 1199, K1712, 8325.4; test: as above; assay type: cell-based, Staphylococcus aureus
Protocol: as §1, §2, §3, §4

[4] = tested on: S. aureus ATCC 29213; test: Chessboard method, I.12 combined with antibiotics (FIC); assay type: cell-based, Staphylococcus aureus; conditions: I.12 and ciprofloxacin; FIC≦0.5 = synergy
Protocol: The antibiotics used are erythromycin, ciprofloxacin, vancomycin, tetracycline and oxacillin.
The sensitivity of S. aureus ATCC 29213 to the combination of the antibiotic molecules ciprofloxacin and the compound I.12 and the effect of each of the two molecules on the activity of the other are determined using the chessboard method. This method is carried out in a round-bottomed 96-well plate (12 columns by 8 rows). Various concentrations of ciprofloxacin and of compound I.12 are obtained by a dilution of their stock solutions in MH II broth. Fifty microliters of the dilution range of the compound I.12 are deposited in each well of columns 1 to 10, each row corresponding to a dilution of this compound. Fifty microliters of the dilution range of ciprofloxacin are deposited in the wells of columns 2 to 10, each column corresponding to a dilution. This same dilution range of ciprofloxacin is also prepared in column 11. Fifty microliters of MH II broth are deposited in the wells of columns 1 and 11. Finally, 100 μl of bacterial suspension at 10^6 CFU (Colony-Forming Units)/ml are introduced in each well of columns 1 to 10 (final concentration of bacteria: 5×10^5 CFU/ml).
The plate is read visually. […] The fractional inhibitory concentration (FIC) is calculated by adding the FIC of the compound I.12 (FICI.12) and the FIC of ciprofloxacin (FICcipro) according to the following formulae: […]

[5] = tested on: Enterococcus faecium (VSE, VRE strains); test: Spectrum of activity: I.12 + ciprofloxacin, E. faecium strains; assay type: cell-based; conditions: for Number of sensitive strains / Percentage of sensitive strains: ciprofloxacin + I.12
Protocol: (§5) The antibiotic used is ciprofloxacin with the same dilution as in section B.1. The compound I.12 is also used under the same conditions as in section B.1.
(§6) Fifty-six strains belonging to 19 genera were used (TABLE 6).
(§7) Nine of these strains are ATCC strains and 47 are of clinical origins and come from the Centre de Biologie Est [Eastern Biological Center] in Bron. Eighteen staphylococcal strains are tested: 1 strain of S. epidermidis, 2 strains of S. aureus, 10 MRSA (methicillin-resistant S. aureus) and 5 VISA (vancomycin intermediate sensitivity S. aureus). Sixteen enterococcal strains are also tested, i.e. 9 E. faecium and 7 E. faecalis. The latter 2 species grouped together 2 vancomycin-sensitive strains (1 per species), and 14 resistant strains (VRE, respectively 8 E. faecium and 6 E. faecalis).
(§8) This potentiating effect is evaluated as previously. However, the growth of certain microorganisms (Streptococcus pneumoniae, S. agalactiae, S. pyogenes, Corynebacterium amycolatum and Listeria monocytogenes) in liquid medium requires defibrinated horse blood lysed in 50% of sterile osmosed water via a succession of 7 freezings (−20° C.)/thawing (ambient temperature). The 50% blood is then centrifuged at ambient temperature at 12 000 rpm for 20 min. The supernatant is introduced into sterile, additive-free MH II in an amount of 5% by volume.

[6] = tested on: S. aureus K 1712 (strain without NorA pump); test: Chessboard method, I.12 combined with antibiotics; assay type: cell-based, Staphylococcus aureus; conditions: each ATB
[7] = tested on: S. aureus ATCC 29213; test: Time kill curve method, I.12/ciprofloxacin combination; assay type: cell-based, Staphylococcus aureus; conditions: ciprofloxacin (0.5 mg/ml and 0.125 mg/m)/I.12 (31 μM); mean of two experiments
Protocol: The time kill curve is performed in 6-well plates. Each well contains 5 ml of MH II broth inoculated with bacteria in the exponential growth phase (final concentrations at 10^6 CFU/ml). The various bacterial growth conditions tested are: • Well 1: 0.5 mg/ml of ciprofloxacin +31 μM of I.12. • Well 2: 0.125 mg/ml of ciprofloxacin +31 μM of I.12. • Well 3: 0.5 mg/ml of ciprofloxacin. • Well 4: 0.125 mg/ml of ciprofloxacin. • Well 5: 31 μM of I.12. • Well 6: No molecule.
The cultures are incubated at 37° C. with shaking at 400 rpm. Samples are taken every hour for the first 6 hours, and at 22 hours. The live bacteria are counted by culturing on a dish after dilutions of the cultures.

[8] = tested on: Enterococcus faecalis (VSE, VRE strains); test: Spectrum of activity: I.12 + ciprofloxacin, E. faecalis strains; assay type: cell-based; conditions: for Number of sensitive strains / Percentage of sensitive strains: ciprofloxacin + I.12
Protocol: as §5, §6, §7, §8

[9] = tested on: MRSA (strain ST07 1012); test: Chessboard method, I.12 combined with ciprofloxacin (FIC); assay type: cell-based, Staphylococcus aureus; conditions: I.12 and ciprofloxacin; FIC≦0.5 = synergy
[10] = tested on: Fifty-six strains belonging to 19 genera; test: Spectrum of activity: potentiating effect of compound I.12 on ciprofloxacin (MIC method); assay type: cell-based
Protocol: as §5, §6, §7, §8

[11] = tested on: Staphylococcus epidermidis; test: Spectrum of activity: I.12 + ciprofloxacin, S. epidermidis; assay type: cell-based
Protocol: as §5, §6, §7, §8

[12] = tested on: VISA (strain V4); test: Chessboard method, I.12 combined with ciprofloxacin (FIC); assay type: cell-based, Staphylococcus aureus; conditions: I.12 and ciprofloxacin; FIC≦0.5 = synergy
[13] = tested on: S. aureus 1199B (strain overexpressing NorA); test: Chessboard method, I.12 combined with antibiotics; assay type: cell-based, Staphylococcus aureus
[14] = tested on: Staphylococcus aureus (MSSA, MRSA, VISA strains); test: Spectrum of activity: I.12 + ciprofloxacin, S. aureus strains; assay type: cell-based; conditions: for Number of sensitive strains / Percentage of sensitive strains: ciprofloxacin + I.12
Protocol: as §5, §6, §7, §8

[15] = tested on: S. aureus K1712 not expressing NorA; test: Supplemental EPI tests: potentiation of antibiotic MICs; assay type: cell-based, Staphylococcus aureus; conditions: strain not expressing NorA
Protocol: as §1, §2, §3, §4

Structure (SMILES): Cc1c(-c2ccccc2)c(=O)[nH]c2cc(O)cc(O)c12 [compound I.13, 5,7-dihydroxy-4-methyl-3-phenylquinolin-2(1H)-one]
- antibiotic activity alone, concentration (MIC) [1]: 155 µM

Structure (SMILES): COc1cc(O)c2c(C)c(Cc3ccccc3)c(=O)[nH]c2c1 [compound I.14, 3-benzyl-5-hydroxy-7-methoxy-4-methylquinolin-2(1H)-one]
- potentiating activity in the presence of tetracycline and of erythromycin [2]: weak activity
- improvement in the MICs (fold) in the presence of norfloxacin and of ciprofloxacin ([3]; I.1 24 μmol/l, I.6 16 μmol/l, I.14 31 μmol/l): results are identical
- melting point: > 278 °C (dec.)

Structure (SMILES): COc1cc(O)c2c(C)c(-c3ccccc3)c(=O)[nH]c2c1 [compound I.12, 5-hydroxy-7-methoxy-4-methyl-3-phenylquinolin-2(1H)-one]
- FIC (fractional inhibitory concentration) [4]: ≤ 0.5
- sensitive strains / strains tested, combination with ciprofloxacin ([5]; E. faecium (the 5 being VREs)): 5/9
- Number of sensitive strains ([5]; E. faecium VRE, 8 tested): 5
- Percentage of sensitive strains ([5]; E. faecium VRE): 62.5%
- Number of sensitive strains ([5]; E. faecium VSE, 1 tested): 0
- Percentage of sensitive strains ([5]; E. faecium VSE): 0
- factor by which the ciprofloxacin MIC is divided in the presence of the compound ([5]; two E. faecium VRE strains not listed in the 28, weakly sensitive): ≥ 2
- interaction with antibiotics (chessboard) [6]: absence of interaction
- reduction of CFU/ml of the combination versus the most active molecule alone (synergistic effect) [7]: ≥ 2 log10
- sensitive strains / strains tested, combination with ciprofloxacin ([8]; E. faecalis (4 are VREs)): 5/7
- Number of sensitive strains ([8]; E. faecalis VRE, 6 tested): 4
- Percentage of sensitive strains ([8]; E. faecalis VRE): 67%
- Number of sensitive strains ([8]; E. faecalis VSE, 1 tested): 1
- Percentage of sensitive strains ([8]; E. faecalis VSE): 100%
- FIC (fractional inhibitory concentration) [9]: ≤ 0.5
- number of strains more sensitive to ciprofloxacin when the compound is combined ([10]; among the 56 bacterial strains tested): 28
- factor by which the ciprofloxacin MICs are divided in the presence of the compound ([10]; each of the 28 sensitive strains, except one): 16
- factor by which the ciprofloxacin MIC is divided in the presence of the compound ([10]; the one exception among the 28 sensitive strains): ≥ 4
- sensitive strains / strains tested, combination with ciprofloxacin ([11]; S. epidermidis): 1/1
- Number of sensitive strains ([11]; S. epidermidis sensitive strain, 1 tested, ciprofloxacin + I.12): 1
- Percentage of sensitive strains ([11]; S. epidermidis sensitive strain, ciprofloxacin + I.12): 100%
- FIC (fractional inhibitory concentration) [12]: ≤ 0.5
- interaction with antibiotics (chessboard) [13]: highly synergistic combination
- Number of sensitive strains ([14]; MRSA, 10 strains tested): 10
- Percentage of sensitive strains ([14]; MRSA): 100%
- Number of sensitive strains ([14]; MSSA, 2 strains tested): 2
- Percentage of sensitive strains ([14]; MSSA): 100%
- sensitive strains / strains tested, combination with ciprofloxacin ([14]; S. aureus sensitive to conventional antibiotics): 2/2
- sensitive strains / strains tested, combination with ciprofloxacin ([14]; S. aureus with reduced sensitivity to vancomycin (VISA)): 5/5
- Number of sensitive strains ([14]; VISA, 5 strains tested): 5
- Percentage of sensitive strains ([14]; VISA): 100%
- sensitive strains / strains tested, combination with ciprofloxacin ([14]; methicillin-resistant S. aureus (MRSA)): 10/10

Structure (SMILES): COc1cc(OC)c2c(C)c(-c3c[nH]c4ccccc34)c(=O)[nH]c2c1 [compound I.6, 3-(1H-indol-3-yl)-5,7-dimethoxy-4-methylquinolin-2(1H)-one]
- potentiating activity in the presence of tetracycline and of erythromycin [2]: does not exist
- potentiating activity combined with one of the two fluoroquinolones ([2]; norfloxacin or ciprofloxacin, strain overexpressing NorA): particularly notable
- potentiating activity of the combinations [15]: zero
- potentiating activity coupled to non-fluoroquinolone antibiotics ([3]; tetracycline, oxacillin, erythromycin, vancomycin): not very effective

Structure (SMILES): COc1cc(O)c2c3c(c(=O)[nH]c2c1)CCC3 [compound I.15, 2,3-dihydro-9-hydroxy-7-methoxy-1H-cyclopenta[c]quinolin-4(5H)-one]
- melting point: 189 to 190 °C

Structure (SMILES): COc1cc(OC)c2c(C)c(-c3cccc(Cl)c3)c(=O)[nH]c2c1 [compound I.1, 3-(3-chlorophenyl)-5,7-dimethoxy-4-methylquinolin-2(1H)-one]
- EPI effects of the compound in combination with antibiotics ([3]; I.1 at 24 μmol/l): minor
